Results: patent US20020106384A1, “Cosmetic compositions and methods for lightening the skin” (priority 1999, published 2002)

Tested on: B16-F1 mouse melanoma cells
Assay: B16 F1 melanoma cell based assay for melanogenesis (melanin content in media)
Conditions: for Melanin (% Control) Alone: 72 hours, absorbance at 530 nm, lower = more inhibition
Description: The ability to inhibit melanin production was assessed using B16 cells, a mouse melanoma cell line.
B16-F1 mouse melanoma cells (obtained from American Type Culture Collection, MD, USA) were maintained in 75 cm^2 culture flasks in RPMI 1640 medium supplemented with L-glutamine (4 mM) and 10% fetal bovine serum (FBS) at 37° C. in a water-saturated, 5% CO2 in air atmosphere. Sub-confluent B16 cells were seeded in 96 well microtiter plates at a density of 5×10^3 cells/well in 200 μl of DMEM containing 10% FBS and 1% penicillin/streptomycin without phenol red at 37° C. under 5% CO2. After 24 hours, the media was replaced with fresh DMEM media containing various compounds at designated concentrations. Cells were incubated for 72 hours at which time melanin was visible in the control well (dark color) where no testing compounds were added.
The amount of melanin produced for each well was quantified by assessing melanin released into the culture media. The pigment containing media from each well was transferred to a clean 96 well plate and the melanin content was quantified by reading the absorbance at 530 nm. Melanin content in each well was calculated as a percent of the control where cells were maintained in DMEM medium or solvent control.
Melanin content in the media was expressed as percent of control, therefore the lower the value is, the more inhibition resulted from the tested compounds.

Row | SMILES | Melanin (% Control) Alone (co-active alone at 2 mM) | Melanin (% Control) Alone (co-active alone at 5 mM) | Melanin (% Control) Alone (co-active alone at 10 mM) | Melanin (% Control) Alone (co-active alone at 15 mM) | inhibitory effects on melanin production (B16 cell assay, dose-dependent)
1 | N[C@@H](Cc1ccccc1)C(=O)O [L-phenylalanine] | 84.9 ± 16.9 % Control | 48.3 ± 10 % Control | 10 ± 2.7 % Control | 49.7 ± 9.9 % Control | 
2 | CC(O)C(=O)O (racemic) [DL-lactic acid] | 103.8 ± 20.5 % Control | 98 ± 19.3 % Control | 79 ± 16.8 % Control | 33.5 ± 7.9 % Control | strong inhibitory effects
3 | NC(=O)c1cccnc1 [Niacinamide] | 94.8 ± 19 % Control | 83.9 ± 16.7 % Control | 66.1 ± 13 % Control | 50.3 ± 10.2 % Control | 
